Assay results published in PubChem BioAssay AID1845205 (Molecular Pharmacology Branch, DTP, NCI, 2023).

System: MPNST multicellular tumor spheroids, viability % test/control
Assay: Anticancer human tumor MPNST cell line growth inhibition;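 further: spheroids exposed to agents for seven days after three days of growth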;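 on viability, T/C: luminescence signal used as surrogate for viable cell amount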
Settings: for IC50: curve of first compound; for viability, T/C: stronger effect = lower value
Summary of the method: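 Single agents and combinations were tested on spheroids built from tumor cells plus HUVEC and hMSC, at half-log dilutions starting at or near clinical Cmax, else 10 microM; final DMSO 0.25% (v/v).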

[1] = second compound 1 µM, first compound 0.00949 µM
[2] = second compound 1 µM, first compound 0.03 µM
[3] = second compound 1 µM, first compound 0.0949 µM
[4] = second compound 1 µM, first compound 0.3 µM
[5] = second compound 1 µM, first compound 0.949 µM
[6] = second compound 1 µM, first compound 3 µM
[7] = second compound 3.16 µM, first compound 0.00949 µM
[8] = second compound 3.16 µM, first compound 0.03 µM
[9] = second compound 3.16 µM, first compound 0.0949 µM
[10] = second compound 3.16 µM, first compound 0.3 µM
[11] = second compound 3.16 µM, first compound 0.949 µM
[12] = second compound 3.16 µM, first compound 3 µM
[13] = second compound 10 µM, first compound 0.00949 µM
[14] = second compound 10 µM, first compound 0.03 µM
[15] = second compound 10 µM, first compound 0.0949 µM
[16] = second compound 10 µM, first compound 0.3 µM
[17] = second compound 10 µM, first compound 0.949 µM
[18] = second compound 10 µM, first compound 3 µM
[19] = second compound 31.6 µM, first compound 0.00949 µM
[20] = second compound 31.6 µM, first compound 0.03 µM
[21] = second compound 31.6 µM, first compound 0.0949 µM
[22] = second compound 31.6 µM, first compound 0.3 µM
[23] = second compound 31.6 µM, first compound 0.949 µM
[24] = second compound 31.6 µM, first compound 3 µM
[25] = second compound 100 µM, first compound 0.00949 µM
[26] = second compound 100 µM, first compound 0.03 µM
[27] = second compound 100 µM, first compound 0.0949 µM
[28] = second compound 100 µM, first compound 0.3 µM
[29] = second compound 100 µM, first compound 0.949 µM
[30] = second compound 100 µM, first compound 3 µM

Molecule `CC(C)n1c(=O)n(C)c2cnc3cc(F)c(-c4ccc(OCCCN5CCCCC5)nc4)cc3c21` + COc1cc2c(cc1O)CCNC21CSC2c3c(OC(C)=O)c(C)c4c(c3C(COC1=O)N1C(O)C3Cc5cc(C)c(OC)c(O)c5C(C21)N3C)OCO4 has an IC50 (second compound 30 pM) of over 10 µM, an IC50 (second compound 94.9 pM) of over 10 µM and an IC50 (second compound 0.0003 µM) of over 10 µM. It also gave an IC50 (second compound 0.000949 µM) of under 0.0316 µM, an IC50 (second compound 0.003 µM) of under 0.0316 µM and a viability, T/C (second compound 30 pM, first compound 0.0316 µM) of 94.6%. It also gave a viability, T/C (second compound 30 pM, first compound 0.1 µM) of 76.6%, a viability, T/C (second compound 30 pM, first compound 0.316 µM) of 79.8% and a viability, T/C (second compound 30 pM, first compound 1 µM) of 135%. It also gave a viability, T/C (second compound 30 pM, first compound 3.16 µM) of 110%, a viability, T/C (second compound 30 pM, first compound 10 µM) of 72.2% and a viability, T/C (second compound 94.9 pM, first compound 0.0316 µM) of 72.3%. The viability, T/C (second compound 94.9 pM, first compound 0.1 µM) was 68.9%, the viability, T/C (second compound 94.9 pM, first compound 0.316 µM) was 79.3% and the viability, T/C (second compound 94.9 pM, first compound 1 µM) was 64.6%. The viability, T/C (second compound 94.9 pM, first compound 3.16 µM) was 63.5%, the viability, T/C (second compound 94.9 pM, first compound 10 µM) was 59.3% and the viability, T/C (second compound 0.0003 µM, first compound 0.0316 µM) was 55.8%. The viability, T/C (second compound 0.0003 µM, first compound 0.1 µM) was 47.3%, the viability, T/C (second compound 0.0003 µM, first compound 0.316 µM) was 61.1% and the viability, T/C (second compound 0.0003 µM, first compound 1 µM) was 67.5%. The viability, T/C (second compound 0.0003 µM, first compound 3.16 µM) was 52.5%, the viability, T/C (second compound 0.0003 µM, first compound 10 µM) was 40.8% and the viability, T/C (second compound 0.000949 µM, first compound 0.0316 µM) was 47.2%. It also gave a viability, T/C (second compound 0.000949 µM, first compound 0.1 µM) of 46.6%, a viability, T/C (second compound 0.000949 µM, first compound 0.316 µM) of 45.5% and a viability, T/C (second compound 0.000949 µM, first compound 1 µM) of 48.1%. The viability, T/C (second compound 0.000949 µM, first compound 3.16 µM) was 45.2%, the viability, T/C (second compound 0.000949 µM, first compound 10 µM) was 37.1% and the viability, T/C (second compound 0.003 µM, first compound 0.0316 µM) was 13.8%. The viability, T/C (second compound 0.003 µM, first compound 0.1 µM) was 13.6%, the viability, T/C (second compound 0.003 µM, first compound 0.316 µM) was 11.6% and the viability, T/C (second compound 0.003 µM, first compound 1 µM) was 10.3%. The viability, T/C (second compound 0.003 µM, first compound 3.16 µM) was 10% and the viability, T/C (second compound 0.003 µM, first compound 10 µM) was 6.09%.
`CNCc1ccc(-c2cc(-c3nc(-c4ccc(S(=O)(=O)C(C)C)cc4)cnc3N)on2)cc1` + Cn1nnc2c(C(N)=O)ncn2c1=O gave an IC50 (second compound 1 µM) of over 3 µM, an IC50 (second compound 3.16 µM) of over 3 µM and an IC50 (second compound 10 µM) of over 3 µM. For the same molecule, the IC50 (second compound 31.6 µM) was over 3 µM, the IC50 (second compound 100 µM) was over 3 µM and the viability, T/C [1] was 110%. It also gave a viability, T/C [2] of 102%, a viability, T/C [3] of 83% and a viability, T/C [4] of 77.9%. It also gave a viability, T/C [5] of 63.1%, a viability, T/C [6] of 63.8% and a viability, T/C [7] of 125%. For the same molecule, the viability, T/C [8] was 120%, the viability, T/C [9] was 97.9% and the viability, T/C [10] was 75.3%. The viability, T/C [11] was 64.8%, the viability, T/C [12] was 61.1% and the viability, T/C [13] was 95.6%. It also gave a viability, T/C [14] of 114%, a viability, T/C [15] of 98.5% and a viability, T/C [16] of 74.8%. For the same molecule, the viability, T/C [17] was 71.8%, the viability, T/C [18] was 69.5% and the viability, T/C [19] was 105%. For the same molecule, the viability, T/C [20] was 81.1%, the viability, T/C [21] was 79.8% and the viability, T/C [22] was 66.6%. It also gave a viability, T/C [23] of 58%, a viability, T/C [24] of 64.3% and a viability, T/C [25] of 92.1%. For the same molecule, the viability, T/C [26] was 95.7%, the viability, T/C [27] was 83% and the viability, T/C [28] was 61.4%. It also gave a viability, T/C [29] of 58.5% and a viability, T/C [30] of 61.7%.
With `Cn1ncnc1[C@H]1c2n[nH]c(=O)c3cc(F)cc(c23)N[C@@H]1c1ccc(F)cc1` + Cn1nnc2c(C(N)=O)ncn2c1=O the IC50 (second compound 1 µM) was 2.76 µM, the IC50 (second compound 3.16 µM) was over 3 µM and the IC50 (second compound 10 µM) was over 3 µM. For the same molecule, the IC50 (second compound 31.6 µM) was 0.505 µM, the IC50 (second compound 100 µM) was 0.027 µM and the viability, T/C [1] was 93.1%. The viability, T/C [2] was 77.1%, the viability, T/C [3] was 70.3% and the viability, T/C [4] was 58.9%. The viability, T/C [5] was 52%, the viability, T/C [6] was 50.8% and the viability, T/C [7] was 77.7%. The viability, T/C [8] was 74%, the viability, T/C [9] was 74.2% and the viability, T/C [10] was 55.2%. The viability, T/C [11] was 53.7%, the viability, T/C [12] was 52.7% and the viability, T/C [13] was 79%. It also gave a viability, T/C [14] of 71.6%, a viability, T/C [15] of 63.9% and a viability, T/C [16] of 55.8%. The viability, T/C [17] was 51.7%, the viability, T/C [18] was 51.7% and the viability, T/C [19] was 61.7%. It also gave a viability, T/C [20] of 56%, a viability, T/C [21] of 58.1% and a viability, T/C [22] of 48.9%. It also gave a viability, T/C [23] of 48.2%, a viability, T/C [24] of 46.5% and a viability, T/C [25] of 52.5%. It also gave a viability, T/C [26] of 50%, a viability, T/C [27] of 49% and a viability, T/C [28] of 46.2%. For the same molecule, the viability, T/C [29] was 47.5% and the viability, T/C [30] was 48.3%.
For `O=C(c1cc(Cc2n[nH]c(=O)c3ccccc23)ccc1F)N1CCN(C(=O)C2CC2)CC1` + Cn1nnc2c(C(N)=O)ncn2c1=O, the IC50 (second compound 1 µM) was 17.7 µM, the IC50 (second compound 3.16 µM) was 22.9 µM and the IC50 (second compound 10 µM) was 26.4 µM. The IC50 (second compound 31.6 µM) was 16.4 µM, the IC50 (second compound 100 µM) was 2.85 µM and the viability, T/C [3] was 70.9%. The viability, T/C [4] was 77.9%, the viability, T/C [5] was 82% and the viability, T/C [6] was 71.9%. It also gave a viability, T/C (second compound 1 µM, first compound 9.49 µM) of 56.1%, a viability, T/C (second compound 1 µM, first compound 30 µM) of 44.9% and a viability, T/C [9] of 83.8%. It also gave a viability, T/C [10] of 80.2%, a viability, T/C [11] of 92.1% and a viability, T/C [12] of 77.2%. The viability, T/C (second compound 3.16 µM, first compound 9.49 µM) was 65.3%, the viability, T/C (second compound 3.16 µM, first compound 30 µM) was 45.4% and the viability, T/C [15] was 118%. It also gave a viability, T/C [16] of 95.2%, a viability, T/C [17] of 87.6% and a viability, T/C [18] of 66.2%. It also gave a viability, T/C (second compound 10 µM, first compound 9.49 µM) of 60.9%, a viability, T/C (second compound 10 µM, first compound 30 µM) of 48.1% and a viability, T/C [21] of 82.6%. The viability, T/C [22] was 107%, the viability, T/C [23] was 80.2% and the viability, T/C [24] was 70.3%. For the same molecule, the viability, T/C (second compound 31.6 µM, first compound 9.49 µM) was 54.1%, the viability, T/C (second compound 31.6 µM, first compound 30 µM) was 45.8% and the viability, T/C [27] was 83.4%. For the same molecule, the viability, T/C [28] was 85.6%, the viability, T/C [29] was 72.6% and the viability, T/C [30] was 49.2%. For the same molecule, the viability, T/C (second compound 100 µM, first compound 9.49 µM) was 46.1% and the viability, T/C (second compound 100 µM, first compound 30 µM) was 44.7%.
